In paper PMC11091978 (ACS Pharmacology & Translational Science, 2024):

Target: NLRP3 (Homo sapiens, UniProt Q96P20)
Format: cell-based

Chain of NLRP3 (Q96P20 whole entry): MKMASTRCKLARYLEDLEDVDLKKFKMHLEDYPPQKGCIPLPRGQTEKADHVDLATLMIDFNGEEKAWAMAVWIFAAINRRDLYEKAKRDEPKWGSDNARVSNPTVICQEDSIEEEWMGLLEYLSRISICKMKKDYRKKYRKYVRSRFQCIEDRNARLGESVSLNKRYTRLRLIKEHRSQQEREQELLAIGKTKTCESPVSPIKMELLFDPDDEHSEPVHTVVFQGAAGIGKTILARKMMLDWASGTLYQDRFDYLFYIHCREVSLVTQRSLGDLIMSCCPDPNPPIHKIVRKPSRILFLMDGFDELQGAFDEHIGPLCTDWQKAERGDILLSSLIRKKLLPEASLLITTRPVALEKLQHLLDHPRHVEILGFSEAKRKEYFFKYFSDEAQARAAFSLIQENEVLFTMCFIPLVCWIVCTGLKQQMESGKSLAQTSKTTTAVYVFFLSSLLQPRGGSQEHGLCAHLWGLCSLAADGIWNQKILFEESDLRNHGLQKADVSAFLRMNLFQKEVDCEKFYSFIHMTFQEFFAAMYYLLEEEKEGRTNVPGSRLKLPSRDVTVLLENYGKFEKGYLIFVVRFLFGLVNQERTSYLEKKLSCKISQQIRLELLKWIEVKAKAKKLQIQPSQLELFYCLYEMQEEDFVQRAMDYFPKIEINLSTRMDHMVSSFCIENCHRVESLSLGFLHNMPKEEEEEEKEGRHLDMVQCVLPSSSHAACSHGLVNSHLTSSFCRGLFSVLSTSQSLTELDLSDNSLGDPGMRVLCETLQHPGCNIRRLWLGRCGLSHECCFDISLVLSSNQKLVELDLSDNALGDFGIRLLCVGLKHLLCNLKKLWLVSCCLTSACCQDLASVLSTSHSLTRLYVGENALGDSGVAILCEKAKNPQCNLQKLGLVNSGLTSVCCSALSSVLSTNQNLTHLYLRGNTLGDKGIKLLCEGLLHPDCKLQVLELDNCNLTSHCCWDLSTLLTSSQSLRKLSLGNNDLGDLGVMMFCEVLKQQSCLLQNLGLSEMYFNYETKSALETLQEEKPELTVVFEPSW

IC50: 11 nM
SMILES: Cn1cc(N(C[C@@H]2CCCO2)S(=O)(=O)NC(=O)Nc2c3c(cc4c2CCC4)CCC3)cn1 [NT-0249, [(1,2,3,5,6,7-hexahydro-s-indacen-4-yl)carbamoyl][(1-methyl-1H-pyrazol-4-yl)({[(2S)-oxolan-2-yl]methyl})sulfamoyl]azanide]
